Results from patent publication US20240368181A1, “QUINOXALINE DERIVATIVES AND USES THEREOF” (Black Diamond Therapeutics, Inc., priority 2021, published 2024).

Experiments:
Type in all cases: cell-based
[1] = test system: UM-UC-14 (FGFR3-S249C) cells; experiment: Cell proliferation assay (CellTiterGlo), UM-UC-14 cells; conditions: inhibition of cell growth, intracellular ATP (CellTiterGlo)
Description: (§1) The following is a non-limiting example that describes a cell proliferation assay used to determine the biological activity of the compounds of the present disclosure. More specifically, the assay as used to assess the ability of the compounds to inhibit cell proliferation.
(§2) Briefly, SNU-16 (FGFR2-amplification) cells, were resuspended at 18,520c/ml mL in RPMI containing 10% Heat Inactivated FBS, 1% L-glutamine and dispensed in duplicate (463c/well) into 384 well plates. UM-UC-14 (FGFR3-S249C) cells were resuspended at 40.000c/ml mL in RPMI containing 10% Heat Inactivated FBS, 1% L-glutamine and dispensed in duplicate (1000c/well) into 384 well plates. DMS-114 (FGFR1 overexpression) cells and were resuspended at 40,000c/ml mL in RPMI containing 10% Heat Inactivated FBS, 1% L-glutamine and dispensed in duplicate (1000c/well) into 384 well plates. RT-112 (FGFR3-Tacc3 fusion) cells were resuspended at 40,000c/ml mL in RPMI containing 10% Heat Inactivated FBS, 1% L-glutamine and dispensed in duplicate (1000c/well) into 384 well plates. To determine the effect of the compounds of the present disclosure on cell proliferation, SNU-16, UM-UC-14, DMS-114 and RT112 cells were incubated for 72 hours in the presence of vehicle control (DMSO) or a compound of the present disclosure at varying concentrations. Inhibition of cell growth was subsequently determined by luminescent quantification (Envision by Perkin Elmer) of intracellular ATP content using CellTiterGlo (Promega), according to the protocol provided by the manufacturer. To determine the IC50 values, the vehicle-treated cells were normalized as viable cells and analyzed using the CDD Vault software (Collaborative Drug Discovery, Burlingame, CA).

[2] = test system: SNU-16 (FGFR2-amplification) cells; experiment: Cell proliferation assay (CellTiterGlo), SNU-16 cells; conditions: inhibition of cell growth, intracellular ATP (CellTiterGlo)
Description: as §1, §2

[3] = test system: DMS-114 (FGFR1 overexpression) cells; experiment: Cell proliferation assay (CellTiterGlo), DMS-114 cells; conditions: 72 hours, inhibition of cell growth, intracellular ATP (CellTiterGlo)
Description: as §1, §2

[4] = test system: RT-112 (FGFR3-Tacc3 fusion) cells; experiment: Cell proliferation assay (CellTiterGlo), RT-112 cells; conditions: RT112 cells, inhibition of cell growth, intracellular ATP (CellTiterGlo)
Description: as §1, §2

| IC50 ([2]; Homo sapiens, SNU-16, 72 h) | IC50 ([2]; 72 hours) | SMILES | IC50 ([1]; UMUC14, 72 h) | IC50 ([3]; Homo sapiens) | IC50 ([4]; Homo sapiens, RT-112, 72 h) | IC50 ([1]; 72 hours) | IC50 [3] | IC50 ([4]; 72 hours) |
| --- | --- | --- | --- | --- | --- | --- | --- | --- |
| < 20 nM |  | Cc1nc2ccc(Oc3ccc4ncc(-c5cnn(CC6CCN(C)CC6)c5)nc4c3Cl)cc2[nH]1 [Compound 14] | < 20 nM | 100 to 400 nM | < 20 nM |  |  |  |
| ≥ 400 nM |  | Cc1nc2ccc(Oc3cc4nc(-c5cnn(CC6CCN(C)CC6)c5)cnc4cc3F)cc2[nH]1 [Compound 49] | ≥ 400 nM | ≥ 400 nM | ≥ 400 nM |  |  |  |
| 100 to 400 nM |  | Cc1nc2ccc(Oc3ccc4ncc(-c5cc(CC6CCN(C)CC6)no5)nc4c3Cl)cc2[nH]1 [Compound 64] | 100 to 400 nM | ≥ 400 nM | 100 to 400 nM |  |  |  |
| 20 to 100 nM |  | Cc1nc2ccc(Oc3ccc4ncc(-c5cnn(CC#N)c5)nc4c3Cl)cc2[nH]1 [Compound 6] | 100 to 400 nM | ≥ 400 nM | 20 to 100 nM |  |  |  |
| < 20 nM |  | Cc1nc2ccc(Oc3ccc4ncc(-c5cnn(CC6CCN(CCO)CC6)c5)nc4c3Cl)cc2[nH]1 [Compound 23] | < 20 nM | 100 to 400 nM | < 20 nM |  |  |  |
| ≥ 400 nM |  | COc1cc(Oc2ccc3ncc(-c4cnn(CC5CCOCC5)c4)nc3c2)cc2[nH]c(C)nc12 [Compound 61] | ≥ 400 nM | ≥ 400 nM | ≥ 400 nM |  |  |  |
| 20 to 100 nM |  | Cc1nc2ccc(Oc3ccc4ncc(-c5cnn(CC6CC(C)OC(C)C6)c5)nc4c3Cl)cc2[nH]1 (stereo not shown) [Compound 1] |  | 20 to 100 nM |  |  |  |  |
| 20 to 100 nM |  | Cc1nc2ccc(Oc3ccc4ncc(-c5cnn(CC6CCN(S(=O)(=O)C(F)F)CC6)c5)nc4c3Cl)cc2[nH]1 [Compound 12] | 20 to 100 nM | 100 to 400 nM | 20 to 100 nM |  |  |  |
| 20 to 100 nM |  | Cc1nc2ccc(Oc3ccc4ncc(-c5cnn(CC6CCN(C)C(C)(C)C6)c5)nc4c3Cl)cc2[nH]1 (stereo not shown) [Compound 3] | 20 to 100 nM | 100 to 400 nM | 20 to 100 nM |  |  |  |
| 100 to 400 nM |  | COc1cc(Oc2ccc3ncc(-c4cnn(CC5CCN(C)CC5)c4)nc3c2Cl)cc2[nH]c(C)nc12 [Compound 46] | ≥ 400 nM | ≥ 400 nM | 100 to 400 nM |  |  |  |
| 20 to 100 nM |  | Cc1nc2ccc(Oc3ccc4ncc(-c5cnn(CC6CCNC6)c5)nc4c3Cl)cc2[nH]1 (stereo not shown) [Compound 10] | 100 to 400 nM | ≥ 400 nM | 20 to 100 nM |  |  |  |
| 20 to 100 nM |  | Cc1nc2ccc(Oc3ccc4ncc(-c5cnn(CC6CCN(S(=O)(=O)CC#N)CC6)c5)nc4c3Cl)cc2[nH]1 [Compound 28] | 20 to 100 nM | 100 to 400 nM | 20 to 100 nM |  |  |  |
| ≥ 400 nM |  | Cc1nc2ccc(Oc3ccc4ncc(-c5cn[nH]c5)nc4c3Cl)cc2[nH]1 [Compound 51] | ≥ 400 nM | ≥ 400 nM | 100 to 400 nM |  |  |  |
| 100 to 400 nM |  | Cc1nc2ccc(Oc3ccc4ncc(-c5c(C)nn(CC6CCN(C)CC6)c5C)nc4c3Cl)cc2[nH]1 [Compound 52] | 100 to 400 nM | ≥ 400 nM | 100 to 400 nM |  |  |  |
| < 20 nM |  | Cc1nc2ccc(Oc3ccc4ncc(-c5cnn(CC6CCOCC6)c5)nc4c3Cl)cc2[nH]1 [Compound 59] |  |  |  | < 20 nM | 100 to 400 nM | < 20 nM |
| 100 to 400 nM |  | Cc1nc2ccc(Oc3ccc4ncc(-c5cnn(C)c5)nc4c3Cl)cc2[nH]1 [Compound 19] | 100 to 400 nM | ≥ 400 nM | 20 to 100 nM |  |  |  |
| 20 to 100 nM |  | Cc1nc2ccc(Oc3ccc4ncc(-c5cnn(CC6CCOC(C)(C)C6)c5)nc4c3Cl)cc2[nH]1 (stereo not shown) [Compound 8] | 20 to 100 nM | 100 to 400 nM | < 20 nM |  |  |  |
| 20 to 100 nM |  | Cc1nc2ccc(Oc3ccc4ncc(-c5cnn(CC6CCN(C(=O)C(F)(F)F)CC6)c5)nc4c3Cl)cc2[nH]1 [Compound 18] | 20 to 100 nM | ≥ 400 nM | 20 to 100 nM |  |  |  |
|  | 100 to 400 nM | Cc1nc2ccc(Oc3ccc4ncc(-c5cnn(CC6CCNCC6)c5)nc4c3Cl)cc2[nH]1 [Compound 47] |  |  |  |  | ≥ 400 nM | 20 to 100 nM |
